The values below come from US20120178671A1, “INHIBITION OF NFK-B MEDIATED VIRUS REPLICATION WITH SPECIFIC OLIGOSACCHARIDES” (N.V. Nutricia, priority 2009, published 2012).

Entries after “also recorded” stand apart in the source; their conditions may differ. Read-outs that look alike come from different tables or passages of the source.

Holding throughout (format): cell-based
The test system of test [1] is NF-κB. Kind of test: Screening of oligosaccharides NFK-B inhibiting activity. To be noted: screening of (oligo)saccharides, Yes/No. From the text: It is hypothesized that the main site of action of the specific nutritional oligosaccharides as mentioned in example 1, is the intestine. […] Screening of oligosaccharides NFK-B inhibiting activity
In test [2] the test system is NFκB activation. Kind of test: NFκB luciferase reporter in HEK293 cells with EPA, pAOS and L-cysteine, TNF-α induced. The conditions noted are these: HEK293-NFκB-Luc cells stimulated with TNFα; for activity at 1000 µM: Homo sapiens, read-out: Inhibition of NFκB activation, average. As to the method:
Methods: HEK293 cells were stably transfected with a NFκB luciferase reporter gene construct. One day after cell plating EPA (0, 25 μM) was added at t=0 h. pAOS (0, 1, 2 and 3 g/L) were added at t=96 h and L-cysteine (0, 1 mM) at t=120 h. NFκB activation was induced by 2.5 h incubation with TNF-α. Luciferase activity was subsequently assessed at t=122.5 h. As a control for cell viability cellular ATP levels were determined.

In test [3] the test system is HEK293 cells. Kind of test: Glutathione in HEK293 cells incubated with pAOS and NAC. The conditions noted are these: AOS 22.5 hr (18 h in Example 4), NAC 2.5 hr, compared with TNF-α-stimulated cells (control). The protocol: To determine this, HEK293 cells were incubated with AOS for 22.5 hr. and NAC in combination with TNF-α for 2.5 hr. Obtained GSH levels were corrected for cell numbers and results were compared levels with TNF-α-stimulated cells (control). […] The combination of NAC and AOS enhance GSH production up to 278% compared with control. Data sets were compared with their baseline controls (0 mg/ml AOS in combination with its specific concentration of NAC or L-cysteine) and presented in example 2. High concentrations of AOS and NAC result in a relative stronger increase in GSH levels.
Methods: HEK293 cells were incubated with citrus pectin oligosaccharide (pAOS) for 18 h, then as a cystein source, NAC was added and incubated for 2.5 h. After the incubation period, the cells were centrifugated (2000 rpm for 5 min). Medium was discarded and taken up into ice-cold perchloric acid (0.4 M) and resuspended. Samples were then centrifuged for 10 min. at 13.000 rpm. Supernatant was collected and used for glutathione measurements. Total glutathione measurements were performed in 10 or 20 times diluted samples.

The test system of test [4] is TNF-α-mediated NF-κB activation. Kind of test: NF-κB luciferase reporter in HEK293 cells, TNF-α induced (pAOS with NAC or L-cysteine). To be noted: pAOS pre-incubated, NAC or L-cysteine added with TNF-α for 2.5 hr. The protocol: FIG. 2. NFkappaB response in HEK293 cells after 22.5 hr. incubation with AOS and NAC (A) or L-cysteine (B) with TNF-α for 2.5 hr. […] TNF-α was added to induce NF-κB activation. citrus pectin oligosaccharide (pAOS) was added 18 h prior to TNF-α addition (t=18 h). As a cystein source, NAC was added at the same time as TNF-α. At t=20.5 the production of luciferase was measured by chemiluminescence.
For orientation: A reporter such as luciferase makes a cellular process visible.

With `OC[C@H]1O[C@@](CO)(OC[C@@]2(O[C@H]3O[C@H](CO)[C@@H](O)[C@H](O)[C@H]3O)O[C@H](CO)[C@@H](O)[C@@H]2O)[C@@H](O)[C@@H]1O` [1-kestose], the NFκB inhibition result in test [1] was “No”.

In the case of `O=C[C@H](O)[C@@H](O)[C@@H](O)[C@H](O)C(=O)O` [Galacturonic acid], the NFκB inhibition result in test [1] is “No”.

Turning to `O.OC[C@H]1O[C@H](OC[C@H]2O[C@H](OC[C@H]3O[C@H](O[C@]4(CO)O[C@H](CO)[C@@H](O)[C@@H]4O)[C@H](O)[C@@H](O)[C@@H]3O)[C@H](O)[C@@H](O)[C@H]2O)[C@H](O)[C@@H](O)[C@H]1O` [Stachyose hydrate], in test [1], the NFκB inhibition entry was “No”.

Consider `OC[C@H]1O[C@@](CO)(OC[C@@]2(OC[C@@]3(O[C@H]4O[C@H](CO)[C@@H](O)[C@H](O)[C@H]4O)O[C@H](CO)[C@@H](O)[C@@H]3O)O[C@H](CO)[C@@H](O)[C@@H]2O)[C@@H](O)[C@@H]1O` [1,1-kestotetraose], for which the NFκB inhibition entry in test [1] was “No”.

As to `OC[C@H]1O[C@H](OC[C@H]2OC(O)(CO)[C@@H](O)[C@@H]2O)[C@H](O)[C@@H](O)[C@@H]1O` (stereo partly drawn) [Palatinose], in test [1], the NFκB inhibition entry is given as “No”.

`N[C@@H](CS)C(=O)O` [L-cysteine]: the activity at 1000 µM in test [2] (HEK293, AOS 0 mg/ml, EPA 25 uM and/or L-cysteine 1 mM as labelled, control without additions = 100) is 80%; in test [2] (HEK293, AOS 1 mg/ml, alone or together with the labelled EPA 25 uM and/or L-cysteine 1 mM, control = 100), 55%; in test [2] (HEK293, AOS 2 mg/ml, alone or together with the labelled EPA 25 uM and/or L-cysteine 1 mM, control = 100), 32%; in test [2] (HEK293, AOS 3 mg/ml, alone or together with the labelled EPA 25 uM and/or L-cysteine 1 mM, control = 100) it was 24%.

`CC(=O)N[C@@H](CS)C(=O)O` [NAC, N-acetyl cysteine]: the “GSH (glutathione) levels, result in words” value in test [3] was “enhances GSH levels in a concentration of 10 mM”. In addition, the “TNF-α-mediated NF-κB activation, result in words” value in test [4] was “capable of blocking NF-κB activation; also recorded: inhibited TNF-α-mediated NF-κB activation dose dependently”.

On to `CC/C=C\C/C=C\C/C=C\C/C=C\C/C=C\CCCC(=O)O` [EPA, eicosapentaenoic acid], for which the “Inhibition of NFκB activation, average” value in test [2] (AOS 0 mg/ml, EPA 25 uM and/or L-cysteine 1 mM as labelled, control without additions = 100) is 113; in test [2] (AOS 1 mg/ml, alone or together with the labelled EPA 25 uM and/or L-cysteine 1 mM, control = 100) it was 62; in test [2] (AOS 2 mg/ml, alone or together with the labelled EPA 25 uM and/or L-cysteine 1 mM, control = 100), 29; in test [2] (AOS 3 mg/ml, alone or together with the labelled EPA 25 uM and/or L-cysteine 1 mM, control = 100), 8.

As to `OC[C@H]1O[C@@](CO)(OC[C@@]2(OC[C@@]3(OC[C@@]4(O[C@H]5O[C@H](CO)[C@@H](O)[C@H](O)[C@H]5O)O[C@H](CO)[C@@H](O)[C@@H]4O)O[C@H](CO)[C@@H](O)[C@@H]3O)O[C@H](CO)[C@@H](O)[C@@H]2O)[C@@H](O)[C@@H]1O` [1,1,1-kestopentaose], in test [1], the NFκB inhibition entry is “No”.

Regarding `O=C(O)[C@H]1O[C@H](O[C@@H]2[C@H](O)[C@@H](O)[C@@H](O[C@@H]3[C@H](O)[C@@H](O)C(O)O[C@@H]3C(=O)O)O[C@@H]2C(=O)O)[C@H](O)[C@@H](O)[C@H]1O` (stereo partly drawn) [Trigalacturonic acid], the NFκB inhibition result in test [1] is “Yes”.

On to `O=C(O)[C@H]1O[C@H](O[C@@H]2[C@H](O)[C@@H](O)[C@@H](O)O[C@@H]2C(=O)O)[C@H](O)[C@@H](O)[C@H]1O` [Digalacturonic acid], for which the NFκB inhibition result in test [1] was “Yes”.
